Data on two compounds can be found in US20120040950A1, “ISOINDOLINONE INHIBITORS OF PHOSPHATIDYLINOSITOL 3-KINASE” (VERTEX PHARMACEUTICALS INCORPORATED, priority 2009, published 2012).

Each structure is given as a SMILES string.

In one assay the target is PI3K-gamma (Homo sapiens, UniProt P48736). Briefly: PI3K Inhibition Assay. It counts as biochemical. As to the method: Using a Biomek FX from Beckman Coulter, 1.5 μL of each of ten 2.5-fold serial dilutions of a compound of the invention in 100% DMSO was added to an individual well (hereafter, “test well”) in a 96 well polystyrene plate [Corning, Costar Item No. 3697]. One test well also contained 1.5 μL of DMSO with no compound. […] Using a Titertek Multidrop, 50 μL of Reaction Mix [100 mM HEPES pH 7.5, 50 mM NaCl, 10 mM DTT, 0.2 mg/mL BSA, 60 μM phosphatidylinositol(4,5)bisphosphate diC16 (PI(4,5)P2; Avanti Polar Lipids, Cat. No. 840046P) and PI3K isoform of interest (see Table 3 for isoform concentrations)] was added to each well. To initiate the reaction, 50 μL of ATP Mix [20 mM MgCl2, 6 μM ATP (100 μCi/μmole ^33P-ATP)] was added each well, followed by incubating the wells for 30 min. at 25° C. Final concentrations in each well were 50 mM HEPES 7.5, 10 mM MgCl2, 25 mM NaCl, 5 mM DTT, 0.1 mg/mL BSA, 30 μM PI(4,5)P2, 3 μM ATP, and the PI3K isoform of interest (see Table 2). Final compound concentrations in each well ranged from 10 μM to 1 nM.
After incubation, the reactions in each well were quenched by addition of 50 μL of stop solution [30% TCA/Water, 10 mM ATP]. […] 50 μL of scintillation fluid was added to each well and the plate read on a Perkin-Elmer TopCount™ NXT liquid scintillation counter to obtain ^33P-counts representing inhibition values. […]

The next assay deals with activated microglia. Briefly: Microglia Activation Assay (LPS-injected mice, Iba1 IHC of brain). It is filed as in vivo, Female C57B1/6J mice. The following applies: 10 mg/kg b.i.d. orally by gavage, 4 doses, LPS 0.5 mg/kg i.p. for three days.

PI3K-gamma, sequence (P48736 whole entry, species assumed, canonical isoform): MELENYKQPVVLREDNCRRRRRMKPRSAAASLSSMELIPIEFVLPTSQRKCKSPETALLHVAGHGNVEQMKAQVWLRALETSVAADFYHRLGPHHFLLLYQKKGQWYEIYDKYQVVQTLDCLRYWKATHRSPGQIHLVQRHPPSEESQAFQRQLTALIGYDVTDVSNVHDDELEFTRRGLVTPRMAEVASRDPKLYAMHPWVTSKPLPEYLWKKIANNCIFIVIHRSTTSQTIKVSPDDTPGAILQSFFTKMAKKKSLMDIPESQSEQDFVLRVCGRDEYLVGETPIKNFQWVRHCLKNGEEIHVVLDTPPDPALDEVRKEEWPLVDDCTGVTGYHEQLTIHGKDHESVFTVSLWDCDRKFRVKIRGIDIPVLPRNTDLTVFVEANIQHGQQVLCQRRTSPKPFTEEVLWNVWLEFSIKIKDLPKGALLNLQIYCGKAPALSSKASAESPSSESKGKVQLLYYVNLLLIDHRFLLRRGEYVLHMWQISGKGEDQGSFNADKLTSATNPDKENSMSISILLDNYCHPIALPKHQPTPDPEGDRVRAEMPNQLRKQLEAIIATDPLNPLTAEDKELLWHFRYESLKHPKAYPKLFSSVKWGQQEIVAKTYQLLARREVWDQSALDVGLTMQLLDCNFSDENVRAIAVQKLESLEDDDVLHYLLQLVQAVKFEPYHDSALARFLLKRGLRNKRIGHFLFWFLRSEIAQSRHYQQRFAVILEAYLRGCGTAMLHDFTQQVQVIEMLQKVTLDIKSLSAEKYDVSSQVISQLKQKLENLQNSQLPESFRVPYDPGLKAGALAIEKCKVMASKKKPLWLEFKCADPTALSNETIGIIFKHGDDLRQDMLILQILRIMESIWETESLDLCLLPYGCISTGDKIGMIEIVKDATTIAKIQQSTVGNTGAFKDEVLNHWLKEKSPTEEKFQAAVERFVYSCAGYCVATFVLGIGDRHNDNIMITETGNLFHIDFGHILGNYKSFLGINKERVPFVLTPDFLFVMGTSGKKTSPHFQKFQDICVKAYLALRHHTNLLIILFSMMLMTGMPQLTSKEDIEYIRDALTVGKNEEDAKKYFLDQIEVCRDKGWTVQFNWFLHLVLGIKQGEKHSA
Description for activated microglia: Female C57B1/6J mice (7 weeks old) were purchased from Jackson Laboratory (Maine, US). Animals were acclimated for a week at standard laboratory conditions (12 hrs light cycles) with free access to rodent chow and water. All procedures were in accordance with the National Institute of Health Guidelines for the care and Use of Laboratory Animals and were approved by IACUCC. The endotoxin Lipopolysaccharide (LPS) (E. coli 011:B4, cat#437627) was purchased from Calbiochem. LPS was dissolved in PBS buffer at a concentration of 0.05 mg/ml and stored in frozen aliquots. At the start of the study, mice received an intraperitoneal (i.p.) injection of LPS (0.5 mg/kg) for three consecutive days. Therapeutic treatment with VRT compounds was started together with the 2nd LPS administration and maintained throughout the study. Compound was dosed twice a day orally by gavage for a total of 4 doses. 24 h following the last LPS injection, and 2 hrs following the last VRT dose, animals were sacrificed by CO2 asphyxiation. […]
Digital images were captured using the Aperio ScanScope Slide Scanner (Aperio Technologies, Vista, Calif.). Images were captured at 20× optical magnification, and analyzed using the software Definiens Developer XD. […] Compound efficacy was calculated as percent decrease in number of activated microglia relative to vehicle control.

As usually defined, the Ki is the dissociation constant of the complex between target and ligand, obtained from inhibition or displacement. A lower Ki goes with a stronger hold on the target. Turning to `COc1cc(-c2nc3c(cc2C)C(=O)N(c2cn[nH]c2)C3)cnc1OC` [Compound 238, 2-(5,6-dimethoxypyridin-3-yl)-3-methyl-6-(1H-pyrazol-4-yl)-6,7-dihydro-5H-pyrrolo[3,4-b]pyridin-5-one], the Ki at PI3K-gamma is 500 to 2500 nM.

Consider `Cc1cc(-c2cncc(OC(F)F)c2)nc2c1C(=O)N(c1cnn(CC(F)(F)F)c1)C2` [Compound 271], for which the “percent decrease in number of activated microglia relative to vehicle control” value in the assay with activated microglia came to 39%.
